In patent US20120172302A1, “COMPOSITION FOR THE TREATMENT OF BENIGN PROSTATE HYPERPLASIA” (priority 2009, published 2012):
Square brackets hold non-standard residues; d marks the D form. Peptide text beside a SMILES is read from it. * marks the point of attachment. dPhe(4-NHCONH2) = NC(=O)Nc1ccc(C[C@@H](N)C(=O)O)cc1; Dihydroorotyl(S) = O=C1C[C@@H](C(=O)*)NC(=O)N1; dPhe(4-Cl) = N[C@H](Cc1ccc(Cl)cc1)C(=O)O; Phe(4-NH2) = Nc1ccc(C[C@H](N)C(=O)O)cc1; d2Nal = N[C@H](Cc1ccc2ccccc2c1)C(=O)O; Lys(iPr) = CC(C)NCCCC[C@H](N)C(=O)O; d3Pal = N[C@H](Cc1cccnc1)C(=O)O

Tested on: patients with BPH
Assay: International Prostate Symptom Score (IPSS) questionnaire, clinical trial in BPH patients
Format: in vivo, men
Description: For each patient, the following parameters were measured or assessed (using the methods discussed below), at time points of screening (e.g. −7 days) day 0 (“baseline”), day 14, day 28 and day 42:
After the initial 6-week treatment period of the exploratory study had been completed, a 12-month follow-up period looking at long-term efficacy commenced. Interim data of the main efficacy variables (IPSS, IPSS Global QoL, prostate volume, urinary flow, and post-void residual volume—measured as set out below) after 6 months' follow-up are also presented herein Table 1, 2, 3 FIG. 1b), together with some IPSS data at 9 and 12 months (FIG. 1b).
The IPSS was developed in 1991 by the American Urological Association to assess the severity of urinary symptoms related to BPH (Barry, M. J., et al., The American Urological Association symptom index for benign prostatic hyperplasia. The Measurement Committee of the American Urological Association. J Urol, 1992. 148(5): p. 1549-57; discussion 1564). It has been widely used in clinical studies, has undergone extensive validation and its psychometric properties are well documented in both the original version (containing a 1-month recall) as well as the ‘acute’ version used in this study (containing a one-week recall). The WHO has recommended the use of this instrument for the evaluation of BPH and it is considered to be the internationally accepted, standard questionnaire for assessing lower urinary tract symptoms.
The patients were asked to complete the IPSS questionnaire to evaluate their urinary symptoms. The IPSS is a patient-administered questionnaire containing seven items to evaluate symptoms of urinary obstruction (incomplete emptying, frequency, hesitancy, urgency, weak stream, straining, nocturia) over the preceding week. Each urinary symptom question is assigned points from 0 to 5 indicating increasing severity of the particular symptom. The total score can therefore range from 0 to 35 (0-7: mildly symptomatic; 8-19: moderately symptomatic; 20-35: severely symptomatic). A reduction in score over the treatment is indicative of improvement.

[1] = Day 42, all treatment groups combined
[2] = Month 6 follow up, 32 mg group, n=7
[3] = Month 6 follow up, 64 mg group, n=4
[4] = Month 6 follow up, 16+16 mg group, n=6
[5] = Month 6 follow up, 32+32 mg group, n=7
[6] = baseline, all treatment groups combined

CC(=O)N[C@H](Cc1ccc2ccccc2c1)C(=O)N[C@H](Cc1ccc(Cl)cc1)C(=O)N[C@H](Cc1cccnc1)C(=O)N[C@@H](CO)C(=O)N[C@@H](Cc1ccc(NC(=O)[C@@H]2CC(=O)NC(=O)N2)cc1)C(=O)N[C@H](Cc1ccc(NC(N)=O)cc1)C(=O)N[C@@H](CC(C)C)C(=O)N[C@@H](CCCCNC(C)C)C(=O)N1CCC[C@H]1C(=O)N[C@H](C)C(N)=O [Degarelix, D-Alaninamide, N-acetyl-3-(2-naphthalenyl)-D-alanyl-4-chloro-D-phenylalanyl-3-(3-pyridinyl)-D-alanyl-L-seryl-4-[[[(4S)-hexahydro-2,6-dioxo-4-pyrimidinyl]carbonyl]amino]-L-phenylalanyl-4-[(aminocarbonyl)amino]-D-phenylalanyl-L leucyl-N6-(1-methylethyl)-L-lysyl-L-prolyl] (Ac-[d2Nal][dPhe(4-Cl)][d3Pal]S[Phe(4-NH2)](Dihydroorotyl(S))[dPhe(4-NHCONH2)]L[Lys(iPr)]P[dA]-NH2)
Mean IPSS score (Baseline of 6 month follow up patients, 16+16 mg group, n=6): 18.8 (n = 6) | Mean IPSS score (Baseline of 6 month follow up patients, 32+32 mg group, n=7): 19.3 (n = 7) | Mean IPSS score (Baseline, 32 mg group (one s.c. injection Day 0), N=12): 22.3 (6.5) | Mean IPSS score (Baseline, 64 mg group (one s.c. injection Day 0), N=13): 21.8 (6.2) | Mean IPSS score (Baseline, 16+16 mg group (16 mg s.c. Day 0 and Day 14), N=13): 17.7 (4.5) | Mean IPSS score (Baseline, 32+32 mg group (32 mg s.c. Day 0 and Day 14), N=12): 18.2 (5.4) | IPSS mean change from baseline (Day 14, 32 mg group): −7.8 (8.7) | IPSS mean change from baseline (Day 14, 64 mg group): −8.0 (4.0) | IPSS mean change from baseline (Day 14, 16+16 mg group): −3.2 (5.4) | IPSS mean change from baseline (Day 14, 32+32 mg group): −5.5 (5.0) | IPSS mean change from baseline (Day 42, 32 mg group): −13.2 (6.6) | Mean IPSS score (Day 42, 32 mg group): 9.1 (6.2) | Number of patients in IPSS category "severe" (Day 42, 32 mg group): 1 patients | Percentage responders (decrease in IPSS of at least 30% vs baseline) (Day 42, 32 mg group): 92% | IPSS mean change from baseline (Day 42, 64 mg group): −10.0 (5.0) | Mean IPSS score (Day 42, 64 mg group): 11.8 (5.9) | Number of patients in IPSS category "severe" (Day 42, 64 mg group): 1 patients | Percentage responders (decrease in IPSS of at least 30% vs baseline) (Day 42, 64 mg group): 85% | IPSS mean change from baseline (Day 42, 64 mg group, listed as degarelix): −10.0 (SD=5.0) | IPSS mean change from baseline (Day 42, 16+16 mg group): −6.1 (4.6) | Mean IPSS score (Day 42, 16+16 mg group): 11.6 (4.5) | Percentage responders (decrease in IPSS of at least 30% vs baseline) (Day 42, 16+16 mg group): 54% | IPSS mean change from baseline (Day 42, 16+16 mg group, listed as degarelix): −6.1 (SD=4.6) | IPSS mean change from baseline (Day 42, 32+32 mg group): −9.6 (4.7) | Mean IPSS score (Day 42, 32+32 mg group): 8.6 (5.7) | Percentage responders (decrease in IPSS of at least 30% vs baseline) (Day 42, 32+32 mg group): 83% | IPSS mean change from baseline (Day 42, 32+32 mg group, listed as degarelix): −9.6 (SD=4.7) | Number of patients in IPSS category "mild" [1]: 17 patients | Number of patients in IPSS category "moderate" [1]: 31 patients | Number of patients in IPSS category "severe" [1]: 2 patients | IPSS mean change from baseline [2]: −11.6 (8.3) | Mean IPSS score [2]: 10.4 (6.3) | Percentage responders (decrease in IPSS of at least 30% vs baseline) [2]: 86% | IPSS mean change from baseline [3]: −4.0 (3.6) | Mean IPSS score [3]: 16.0 (8.7) | Percentage responders (decrease in IPSS of at least 30% vs baseline) [3]: 5% | IPSS mean change from baseline [4]: −2.5 (4.3) | Mean IPSS score [4]: 16.3 (4.7) | Percentage responders (decrease in IPSS of at least 30% vs baseline) [4]: 33% | IPSS mean change from baseline [5]: −12.6 (9.6) | Mean IPSS score [5]: 6.7 (4.5) | Percentage responders (decrease in IPSS of at least 30% vs baseline) [5]: 86% | Number of patients in IPSS category "moderate" [6]: 27 patients | Number of patients in IPSS category "severe" [6]: 23 patients
